Assay type in all cases: functional, organism-based
For assay [1], the system named is Mus musculus. Briefly: Antiinflammatory activity in […] mouse assessed as inhibition of TPA-induced IL-1beta mRNA expression in epidermis at 2 umol administered topically 30 mins prior to TPA challenge for twice weekly over 2 weeks measured 6 hrs post last TPA challenge by qRT-PCR analysis. (In general: Real-time PCR tracks product formation cycle by cycle.)
Assay [2] deals with Mus musculus. The experiment in a line: Antiinflammatory activity in […] mouse assessed as inhibition of TPA-induced IL-23 mRNA expression in epidermis at 2 umol administered topically 30 mins prior to TPA challenge for twice weekly over 2 weeks measured 6 hrs post last TPA challenge by qRT-PCR analysis.
Assay [3] has as its system Mus musculus. Briefly: Antiinflammatory activity in […] mouse assessed as inhibition of TPA-induced IL-1alpha mRNA expression in epidermis at 2 umol administered topically 30 mins prior to TPA challenge for twice weekly over 2 weeks measured 6 hrs post last TPA challenge by qRT-PCR analysis.
Assay [4] has as its system Mus musculus. The experiment in a line: Antiinflammatory activity in […] mouse assessed as inhibition of TPA-induced IL-6 mRNA expression in epidermis at 2 umol administered topically 30 mins prior to TPA challenge for twice weekly over 2 weeks measured 6 hrs post last TPA challenge by qRT-PCR analysis.

Active and inactive are the calls of the source. No cut-off for these calls is given here.

Take `C[C@H]1[C@H](C)CC[C@]2(C(=O)O)CC[C@]3(C)C(=CC[C@@H]4[C@@]5(C)C[C@@H](O)[C@H](O)C(C)(C)[C@@H]5CC[C@]43C)[C@H]12`: the inhibition entry in the assay with Mus musculus [1], in the assay on Mus musculus [2], in the assay with Mus musculus [3] and in the assay with Mus musculus [4] was “Active” each time.

With `CC1(C)CC[C@]2(C(=O)O)CC[C@]3(C)C(=CC[C@@H]4[C@@]5(C)C[C@@H](O)[C@H](O)C(C)(C)[C@@H]5CC[C@]43C)[C@@H]2C1`, the inhibition entry in the assay on Mus musculus [1], in the assay with Mus musculus [2], in the assay on Mus musculus [3] and in the assay on Mus musculus [4] was “Active” throughout.

In the case of `CC1(C)CC[C@]2(C(=O)O)CC[C@]3(C)C(=CC[C@@H]4[C@@]5(C)C[C@@H](O)[C@@H](O)C(C)(C)[C@@H]5CC[C@]43C)[C@@H]2C1`, the inhibition entry with Mus musculus [1], with Mus musculus [2], in the assay with Mus musculus [3] and in the assay on Mus musculus [4] was “inactive” each time.

In the case of `CC1(C)CC[C@]2(C(=O)O)CC[C@]3(C)C(=CC[C@@H]4[C@@]5(C)CC[C@H](O)C(C)(C)[C@@H]5CC[C@]43C)[C@@H]2C1`, the inhibition result in the assay on Mus musculus [1], in the assay on Mus musculus [2], in the assay on Mus musculus [3] and in the assay with Mus musculus [4] was “inactive” in each case.

Regarding `C[C@H]1[C@H](C)CC[C@]2(C(=O)O)CC[C@]3(C)C(=CC[C@@H]4[C@@]5(C)CC[C@H](O)C(C)(C)[C@@H]5CC[C@]43C)[C@H]12`, the inhibition result in the assay with Mus musculus [1], in the assay with Mus musculus [2], in the assay on Mus musculus [3] and in the assay with Mus musculus [4] was “inactive” in each case.

Take `C[C@H]1[C@H](C)CC[C@]2(C(=O)O)CC[C@]3(C)C(=CC[C@@H]4[C@@]5(C)C[C@@H](O)[C@@H](O)C(C)(C)[C@@H]5CC[C@]43C)[C@H]12`: the inhibition result with Mus musculus [1], in the assay with Mus musculus [2], with Mus musculus [3] and with Mus musculus [4] was “Active” each time.

Source of the values: ChEMBL document CHEMBL3616450, “Synthesis of oxygenated oleanolic and ursolic acid derivatives with anti-inflammatory properties” (Bioorg Med Chem Lett, 2015).
